Laboratory results taken from patent publication US8940724B2, “Quinoline derivitives and their uses” (Amgen Inc., priority 2009, dated 2015).
pKi: −log10 of the molar value.

target: T1, PI3Kδ (Homo sapiens, UniProt O00329); experiment: PI3Kδ Alphascreen assay; format: biochemical
T1 construct: Full length p110 subunits of PI3k α, β and δ, N-terminally labeled with polyHis tag; polyHis (N); made in house; host or cells: Sf9 insect cells (baculovirus)
T1 sequence (O00329 whole entry): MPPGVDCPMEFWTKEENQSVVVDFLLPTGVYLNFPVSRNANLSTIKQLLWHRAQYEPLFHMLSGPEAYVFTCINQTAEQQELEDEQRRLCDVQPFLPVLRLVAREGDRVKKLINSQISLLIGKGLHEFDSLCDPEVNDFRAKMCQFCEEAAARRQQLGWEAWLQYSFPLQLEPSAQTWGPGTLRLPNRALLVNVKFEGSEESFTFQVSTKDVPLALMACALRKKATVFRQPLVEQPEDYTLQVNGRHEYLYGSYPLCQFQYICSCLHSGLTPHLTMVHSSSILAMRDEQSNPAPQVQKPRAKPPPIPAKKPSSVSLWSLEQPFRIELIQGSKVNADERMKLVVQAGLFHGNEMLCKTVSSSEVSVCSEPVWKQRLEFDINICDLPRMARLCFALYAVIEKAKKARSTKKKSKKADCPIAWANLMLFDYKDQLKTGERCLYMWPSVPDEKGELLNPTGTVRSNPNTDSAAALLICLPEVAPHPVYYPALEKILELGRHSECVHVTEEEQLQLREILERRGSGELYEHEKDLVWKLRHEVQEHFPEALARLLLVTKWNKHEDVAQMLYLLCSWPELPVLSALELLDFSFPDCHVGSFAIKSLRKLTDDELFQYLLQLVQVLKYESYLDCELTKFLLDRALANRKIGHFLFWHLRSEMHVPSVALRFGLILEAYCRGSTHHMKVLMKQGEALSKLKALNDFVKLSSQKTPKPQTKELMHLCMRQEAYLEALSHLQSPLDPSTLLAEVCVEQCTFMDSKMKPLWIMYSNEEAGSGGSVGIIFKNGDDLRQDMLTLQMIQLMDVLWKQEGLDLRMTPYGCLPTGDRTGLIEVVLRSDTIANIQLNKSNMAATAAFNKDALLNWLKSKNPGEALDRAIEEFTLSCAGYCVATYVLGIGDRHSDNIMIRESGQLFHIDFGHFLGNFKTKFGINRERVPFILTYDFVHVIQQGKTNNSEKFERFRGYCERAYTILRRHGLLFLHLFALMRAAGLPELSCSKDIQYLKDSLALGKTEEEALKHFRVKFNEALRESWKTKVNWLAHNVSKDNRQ
T1 sequence (P27986 whole entry partner): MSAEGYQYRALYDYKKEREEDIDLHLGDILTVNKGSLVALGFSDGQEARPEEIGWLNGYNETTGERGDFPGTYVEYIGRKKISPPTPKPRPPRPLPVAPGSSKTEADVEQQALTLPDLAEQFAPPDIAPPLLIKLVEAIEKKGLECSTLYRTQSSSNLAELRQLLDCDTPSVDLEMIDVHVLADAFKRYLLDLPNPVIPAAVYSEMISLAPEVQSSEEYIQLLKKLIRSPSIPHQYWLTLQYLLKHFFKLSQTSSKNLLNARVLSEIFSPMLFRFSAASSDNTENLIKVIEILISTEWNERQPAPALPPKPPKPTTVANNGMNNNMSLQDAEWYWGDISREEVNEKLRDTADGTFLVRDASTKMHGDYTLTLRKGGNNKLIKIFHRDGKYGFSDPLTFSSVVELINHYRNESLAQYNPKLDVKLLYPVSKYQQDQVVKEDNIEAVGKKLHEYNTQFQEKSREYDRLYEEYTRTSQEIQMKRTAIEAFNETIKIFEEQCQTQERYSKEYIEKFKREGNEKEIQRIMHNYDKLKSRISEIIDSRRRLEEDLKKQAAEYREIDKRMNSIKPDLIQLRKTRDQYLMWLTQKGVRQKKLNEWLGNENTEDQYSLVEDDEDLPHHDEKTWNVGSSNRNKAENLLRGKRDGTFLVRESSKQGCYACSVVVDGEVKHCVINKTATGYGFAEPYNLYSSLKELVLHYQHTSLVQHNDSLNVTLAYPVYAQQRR

Structure (SMILES) | pKi
COc1ccc(-c2ncc(N3CCOCC3)cc2Nc2c(C)c(-c3ccccc3S(C)(=O)=O)nc3cc(F)cc(F)c23)cn1 [N-(5,7-difluoro-3-methyl-2-(2-(methylsulfonyl)phenyl)-4-quinolinyl)-6′-methoxy-5-(4-morpholinyl)-2,3′-bipyridin-3-amine] | 8.75
COc1cncc(-c2ncc(N3CCOCC3)cc2N(C(=O)C(F)(F)F)c2c(C)c(-c3ccccn3)nc3cc(F)cc(F)c23)c1 [N-(5,7-difluoro-3-methyl-2-(2-pyridinyl)-4-quinolinyl)-2,2,2-trifluoro-N-(5′-methoxy-5-(4-morpholinyl)-2,3′-bipyridin-3-yl)-acetamide] | 6.64
COc1ncccc1-c1ncc(N2CCOCC2)cc1Nc1c(C)c(-c2ccccn2)nc2cc(F)cc(F)c12 [N-(5,7-difluoro-3-methyl-2-(2-pyridinyl)-4-quinolinyl)-2′-methoxy-5-(4-morpholinyl)-2,3′-bipyridin-3-amine] | 6.92
COc1cc(-c2ncc(N3CCOCC3)cc2Nc2c(C)c(-c3ccccn3)nc3cc(F)cc(F)c23)ccn1 [N-(5,7-difluoro-3-methyl-2-(2-pyridinyl)-4-quinolinyl)-2′-methoxy-5-(4-morpholinyl)-2,4′-bipyridin-3-amine] | 8.10
COc1cnccc1-c1ncc(N2CCOCC2)cc1Nc1c(C)c(-c2ccccn2)nc2cc(F)cc(F)c12 [N-(5,7-difluoro-3-methyl-2-(2-pyridinyl)-4-quinolinyl)-3′-methoxy-5-(4-morpholinyl)-2,4′-bipyridin-3-amine] | 8.11
COc1cc(-c2ncc(N3CCOCC3)cc2Nc2c(C)c(-c3ccccn3)nc3cc(F)cc(F)c23)c(F)cn1 [N-(5,7-difluoro-3-methyl-2-(2-pyridinyl)-4-quinolinyl)-5′-fluoro-2′-methoxy-5-(4-morpholinyl)-2,4′-bipyridin-3-amine] | 7.63
COc1cncc(-c2ncc(N3CCOCC3)cc2Nc2c(C)c(-c3ccccn3)nc3cc(F)cc(F)c23)c1 [N-(5,7-difluoro-3-methyl-2-(2-pyridinyl)-4-quinolinyl)-5′-methoxy-5-(4-morpholinyl)-2,3′-bipyridin-3-amine] | 9.29
CCOc1ccc(-c2ncc(N3CCOCC3)cc2Nc2c(C)c(-c3ccccn3)nc3cc(F)cc(F)c23)cn1 [N-(5,7-difluoro-3-methyl-2-(2-pyridinyl)-4-quinolinyl)-6′-ethoxy-5-(4-morpholinyl)-2,3′-bipyridin-3-amine] | 8.58
COc1ccc(-c2ncc(N3CCOCC3)cc2Nc2c(C)c(-c3ccccn3)nc3cc(F)cc(F)c23)cn1 [N-(5,7-difluoro-3-methyl-2-(2-pyridinyl)-4-quinolinyl)-6′-methoxy-5-(4-morpholinyl)-2,3′-bipyridin-3-amine] | 8.81
Cc1c(-c2cccnc2)nc2cc(F)cc(F)c2c1N(C(=O)C(F)(F)F)c1cncc(N2CCOCC2)c1 [N-(5,7-difluoro-3-methyl-2-(3-pyridinyl)-4-quinolinyl)-2,2,2-trifluoro-N-(5-(4-morpholinyl)-3-pyridinyl)acetamide] | 7.33
COc1ccc(-c2ncc(N3CCOCC3)cc2Nc2c(C)c(-c3cc(C)ccn3)nc3cc(F)cc(F)c23)cn1 [N-(5,7-difluoro-3-methyl-2-(4-methyl-2-pyridinyl)-4-quinolinyl)-6′-methoxy-5-(4-morpholinyl)-2,3′-bipyridin-3-amine] | 8.50
Cc1c(NCC(=O)O)nc2cc(F)cc(F)c2c1Nc1cncc(N2CCOCC2)c1 [N-(5,7-difluoro-3-methyl-4-((5-(4-morpholinyl)-3-pyridinyl)-amino)-2-quinolinyl)glycine] | 6.88
Cc1ccnc(-c2nc3cc(F)cc(F)c3c(Nc3cncc(-c4ccnc(N)n4)c3)c2C)c1 [N-(5-(2-amino-4-pyrimidinyl)-3-pyridinyl)-5,7-difluoro-3-methyl-2-(4-methyl-2-pyridinyl)-4-quinolinamine] | 8.27
Cc1c(-c2ccccc2S(C)(=O)=O)nc2cc(F)cc(F)c2c1Nc1cncc(C2=CCOCC2)c1 [N-(5-(3,6-dihydro-2H-pyran-4-yl)-3-pyridinyl)-5,7-difluoro-3-methyl-2-(2-(methylsulfonyl)phenyl)-4-quinolinamine] | 8.75

The next lines start with the values.

pKi | Structure (SMILES)
7.84 | Cc1ccnc(-c2nc3cc(F)cc(F)c3c(Nc3cncc(C4=CCOCC4)c3)c2C)c1 [N-(5-(3,6-dihydro-2H-pyran-4-yl)-3-pyridinyl)-5,7-difluoro-3-methyl-2-(4-methyl-2-pyridinyl)-4-quinolinamine]
7.17 | Cc1c(N2CCOCC2)nc2cc(F)cc(F)c2c1Nc1cncc(C2=CCOCC2)c1 [N-(5-(3,6-dihydro-2H-pyran-4-yl)-3-pyridinyl)-5,7-difluoro-3-methyl-2-(4-morpholinyl)-4-quinolinamine]
8.05 | COc1cncc(-c2ncc(N3CCOCC3)cc2Nc2c(C)c(-c3cc(C)ccn3)nc3c(Cl)cccc23)c1 [N-(8-chloro-3-methyl-2-(4-methyl-2-pyridinyl)-4-quinolinyl)-5′-methoxy-5-(4-morpholinyl)-2,3′-bipyridin-3-amine]
7.34 | CCOC(=O)N1CCN(c2nc3cc(F)cc(F)c3c(Nc3cncc(N4CCOCC4)c3)c2C)CC1 [ethyl 4-(5,7-difluoro-3-methyl-4-((5-(4-morpholinyl)-3-pyridinyl)amino)-2-quinolinyl)-1-piperazinecarboxylate]
8.15 | COC(=O)N1CCN(c2nc3cc(F)cc(F)c3c(Nc3cc(N4CCOCC4)cnc3N3CCOCC3)c2C)CC1 [methyl 4-(4-((2,5-di-4-morpholinyl-3-pyridinyl)amino)-5,7-difluoro-3-methyl-2-quinolinyl)-1-piperazinecarboxylate]
8.03 | COC(=O)N1CCN(c2nc3cc(F)cc(F)c3c(Nc3cncc(N4CCOCC4)c3)c2C)CC1 [methyl 4-(5,7-difluoro-3-methyl-4-((5-(4-morpholinyl)-3-pyridinyl)amino)-2-quinolinyl)-1-piperazinecarboxylate]
6.73 | COC(=O)N1CCN(c2nc3cc(F)cc(F)c3c(Nc3cncc(N4CCOCC4)c3)c2C)C[C@H]1C [methyl (2R)-4-(5,7-difluoro-3-methyl-4-((5-(4-morpholinyl)-3-pyridinyl)amino)-2-quinolinyl)-2-methyl-1-piperazinecarboxylate]
7.82 | COC(=O)N1CCN(c2nc3cc(F)cc(F)c3c(Nc3cncc(N4CCOCC4)c3)c2C)C[C@@H]1C [methyl (2S)-4-(5,7-difluoro-3-methyl-4-((5-(4-morpholinyl)-3-pyridinyl)amino)-2-quinolinyl)-2-methyl-1-piperazinecarboxylate]
7.50 | COC(=O)N1CCN(c2nc3cc(F)cc(F)c3c(Nc3cncc(N4CCOCC4)c3)c2C)[C@H](C)C1 [methyl (3R)-4-(5,7-difluoro-3-methyl-4-((5-(4-morpholinyl)-3-pyridinyl)amino)-2-quinolinyl)-3-methyl-1-piperazinecarboxylate]
7.74 | Cc1c(N2CCC[C@@H]2C(=O)OC(C)(C)C)nc2cc(F)cc(F)c2c1Nc1cncc(N2CCOCC2)c1 [tert-butyl 1-(5,7-difluoro-3-methyl-4-((5-(4-morpholinyl)-3-pyridinyl)amino)-2-quinolinyl)-D-prolinate]
8.65 | Cc1c(N2CCC[C@H]2C(=O)OC(C)(C)C)nc2cc(F)cc(F)c2c1Nc1cncc(N2CCOCC2)c1 [tert-butyl 1-(5,7-difluoro-3-methyl-4-((5-(4-morpholinyl)-3-pyridinyl)amino)-2-quinolinyl)-L-prolinate]
